# Results from PubChem BioAssay (NCI).
#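 Values below derive from 48-hour exposures of cells grown in 96-well plates, with endpoints linearly interpolated between the two concentrations bracketing the appropriate inhibition level. GI50 is the concentration that inhibits growth by half. TGI denotes the concentration required for complete inhibition of growth.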
# Assays:
# Test in all cases: inhibition of tumour cell growth, NCI panel, 48 h
# MALME-3M melanoma = tested on: MALME-3M melanoma
# NCI-H226 lung = tested on: NCI-H226 lung
# SNB-75 CNS = tested on: SNB-75 CNS
# HL-60(TB) leukemia = tested on: HL-60(TB) leukemia
# CCRF-CEM leukemia = tested on: CCRF-CEM leukemia
# SF-268 CNS = tested on: SF-268 CNS
# CAKI-1 renal = tested on: CAKI-1 renal
# SF-295 CNS = tested on: SF-295 CNS
# DU-145 prostate = tested on: DU-145 prostate
# EKVX NSCLC = tested on: EKVX NSCLC
# HOP-62 NSCLC = tested on: HOP-62 NSCLC
# HT29 colon = tested on: HT29 colon
# MDA-MB-435 = tested on: MDA-MB-435
# UO-31 renal = tested on: UO-31 renal
# RXF 393 renal = tested on: RXF 393 renal
# NCI-H460 lung = tested on: NCI-H460 lung
# HOP-92 NSCLC = tested on: HOP-92 NSCLC
# HCT-15 colon = tested on: HCT-15 colon
# NCI-H522 lung = tested on: NCI-H522 lung
# SK-MEL-28 melanoma = tested on: SK-MEL-28 melanoma
# MOLT-4 leukemia = tested on: MOLT-4 leukemia
# IGROV1 ovarian = tested on: IGROV1 ovarian
# M14 melanoma = tested on: M14 melanoma
# HCC-2998 colon = tested on: HCC-2998 colon
# PC-3 prostate = tested on: PC-3 prostate
# KM12 colon = tested on: KM12 colon
# SK-MEL-5 melanoma = tested on: SK-MEL-5 melanoma
# SK-OV-3 ovarian = tested on: SK-OV-3 ovarian
# TK-10 renal = tested on: TK-10 renal
# SF-539 CNS = tested on: SF-539 CNS
# A549 NSCLC = tested on: A549 NSCLC
# SN12C renal = tested on: SN12C renal
# UACC-62 melanoma = tested on: UACC-62 melanoma
# SK-MEL-2 melanoma = tested on: SK-MEL-2 melanoma
# HCT-116 colon = tested on: HCT-116 colon
# SNB-19 CNS = tested on: SNB-19 CNS
# ACHN renal = tested on: ACHN renal
# NCI/ADR-RES ovarian = tested on: NCI/ADR-RES ovarian
# OVCAR-4 ovarian = tested on: OVCAR-4 ovarian
# OVCAR-8 ovarian = tested on: OVCAR-8 ovarian
# OVCAR-5 ovarian = tested on: OVCAR-5 ovarian
# NCI-H23 lung = tested on: NCI-H23 lung
# A498 renal = tested on: A498 renal
# UACC-257 melanoma = tested on: UACC-257 melanoma
# 786-0 renal = tested on: 786-0 renal
# SW-620 colon = tested on: SW-620 colon
# BT-549 breast = tested on: BT-549 breast
# SR leukemia = tested on: SR leukemia
# MDA-MB-231 breast = tested on: MDA-MB-231 breast
# K-562 leukemia = tested on: K-562 leukemia
# MCF7 breast = tested on: MCF7 breast
# HS 578T breast = tested on: HS 578T breast
# RPMI-8226 leukemia = tested on: RPMI-8226 leukemia
# LOX IMVI melanoma = tested on: LOX IMVI melanoma
# U251 CNS = tested on: U251 CNS
smiles,measurement,setting,value
COc1ccc2nc3ccccc3c(NCc3ccc(Cl)cc3)c2c1,GI50,MALME-3M melanoma,1.81 µM
same,TGI,MALME-3M melanoma,3.39 µM
same,GI50,NCI-H226 lung,2.14 µM
same,TGI,NCI-H226 lung,5.74 µM
same,GI50,SNB-75 CNS,1.27 µM
same,TGI,SNB-75 CNS,2.62 µM
same,GI50,HL-60(TB) leukemia,2.29 µM
same,TGI,HL-60(TB) leukemia,5.24 µM
same,GI50,CCRF-CEM leukemia,2.66 µM
same,TGI,CCRF-CEM leukemia,9.48 µM
same,GI50,SF-268 CNS,1.98 µM
same,TGI,SF-268 CNS,4.61 µM
same,GI50,CAKI-1 renal,1.69 µM
same,TGI,CAKI-1 renal,3.23 µM
same,GI50,SF-295 CNS,1.5 µM
same,TGI,SF-295 CNS,2.93 µM
same,GI50,DU-145 prostate,2.65 µM
same,TGI,DU-145 prostate,7.33 µM
same,GI50,EKVX NSCLC,2.3 µM
same,TGI,EKVX NSCLC,5.92 µM
same,GI50,HOP-62 NSCLC,1.72 µM
same,TGI,HOP-62 NSCLC,3.44 µM
same,GI50,HT29 colon,2.02 µM
same,TGI,HT29 colon,7.08 µM
same,GI50,MDA-MB-435,1.5 µM
same,TGI,MDA-MB-435,3.06 µM
same,GI50,UO-31 renal,1.34 µM
same,TGI,UO-31 renal,2.75 µM
same,GI50,RXF 393 renal,1.45 µM
same,TGI,RXF 393 renal,3 µM
same,GI50,NCI-H460 lung,1.88 µM
same,TGI,NCI-H460 lung,3.69 µM
same,GI50,HOP-92 NSCLC,1.48 µM
same,TGI,HOP-92 NSCLC,3.35 µM
same,GI50,HCT-15 colon,1.73 µM
same,TGI,HCT-15 colon,3.88 µM
same,GI50,NCI-H522 lung,2.02 µM
same,TGI,NCI-H522 lung,5.08 µM
same,GI50,SK-MEL-28 melanoma,1.78 µM
same,TGI,SK-MEL-28 melanoma,3.36 µM
same,GI50,MOLT-4 leukemia,3.19 µM
same,TGI,MOLT-4 leukemia,13.3 µM
same,GI50,IGROV1 ovarian,2.4 µM
same,TGI,IGROV1 ovarian,6.65 µM
same,GI50,M14 melanoma,1.81 µM
same,TGI,M14 melanoma,3.47 µM
same,GI50,HCC-2998 colon,1.76 µM
same,TGI,HCC-2998 colon,3.24 µM
same,GI50,PC-3 prostate,1.79 µM
same,TGI,PC-3 prostate,4.24 µM
same,GI50,KM12 colon,3.08 µM
same,TGI,KM12 colon,11.3 µM
same,GI50,SK-MEL-5 melanoma,1.76 µM
same,TGI,SK-MEL-5 melanoma,3.19 µM
same,GI50,SK-OV-3 ovarian,3.19 µM
same,TGI,SK-OV-3 ovarian,9.8 µM
same,GI50,TK-10 renal,1.96 µM
same,TGI,TK-10 renal,3.84 µM
same,GI50,SF-539 CNS,1.71 µM
same,TGI,SF-539 CNS,3.24 µM
same,GI50,A549 NSCLC,2.06 µM
same,TGI,A549 NSCLC,4.89 µM
same,GI50,SN12C renal,1.73 µM
same,TGI,SN12C renal,3.86 µM
same,GI50,UACC-62 melanoma,1.66 µM
same,TGI,UACC-62 melanoma,3.21 µM
same,GI50,SK-MEL-2 melanoma,1.93 µM
same,TGI,SK-MEL-2 melanoma,3.7 µM
same,GI50,HCT-116 colon,1.79 µM
same,TGI,HCT-116 colon,4.14 µM
same,GI50,SNB-19 CNS,2.26 µM
same,TGI,SNB-19 CNS,6.35 µM
same,GI50,ACHN renal,1.55 µM
same,TGI,ACHN renal,2.89 µM
same,GI50,NCI/ADR-RES ovarian,1.8 µM
same,TGI,NCI/ADR-RES ovarian,3.97 µM
same,GI50,OVCAR-4 ovarian,2.13 µM
same,TGI,OVCAR-4 ovarian,6.35 µM
same,GI50,OVCAR-8 ovarian,2.25 µM
same,TGI,OVCAR-8 ovarian,5.91 µM
same,GI50,OVCAR-5 ovarian,1.91 µM
same,TGI,OVCAR-5 ovarian,4.9 µM
same,GI50,NCI-H23 lung,1.86 µM
same,TGI,NCI-H23 lung,4.52 µM
same,GI50,A498 renal,1.44 µM
same,TGI,A498 renal,2.77 µM
same,GI50,UACC-257 melanoma,2.03 µM
same,TGI,UACC-257 melanoma,4.57 µM
same,GI50,786-0 renal,1.73 µM
same,TGI,786-0 renal,3.2 µM
same,GI50,SW-620 colon,1.65 µM
same,TGI,SW-620 colon,3.47 µM
same,GI50,BT-549 breast,5.64 µM
same,TGI,BT-549 breast,20.8 µM
Cn1cc(-c2ccc(-c3cn(C)c4ccc(Cl)cc34)[nH]2)c2cc(Cl)ccc21,GI50,SR leukemia,0.617 µM
same,TGI,SR leukemia,3.19 µM
same,GI50,NCI-H226 lung,1.93 µM
same,TGI,NCI-H226 lung,4.25 µM
same,GI50,SNB-75 CNS,1.75 µM
same,TGI,SNB-75 CNS,4.38 µM
same,GI50,HL-60(TB) leukemia,0.438 µM
same,TGI,HL-60(TB) leukemia,2.62 µM
same,GI50,CCRF-CEM leukemia,0.373 µM
same,TGI,CCRF-CEM leukemia,1.7 µM
same,GI50,SF-268 CNS,1.38 µM
same,TGI,SF-268 CNS,4.09 µM
same,GI50,DU-145 prostate,3.57 µM
same,TGI,DU-145 prostate,15.3 µM
same,GI50,HOP-62 NSCLC,2.25 µM
same,TGI,HOP-62 NSCLC,7.76 µM
same,GI50,MDA-MB-231 breast,0.442 µM
same,TGI,MDA-MB-231 breast,1.98 µM
same,GI50,HT29 colon,3.92 µM
same,TGI,HT29 colon,16 µM
same,GI50,UO-31 renal,0.208 µM
same,TGI,UO-31 renal,0.503 µM
same,GI50,RXF 393 renal,0.882 µM
same,TGI,RXF 393 renal,2.31 µM
same,GI50,HOP-92 NSCLC,1.15 µM
same,TGI,HOP-92 NSCLC,3.28 µM
same,GI50,HCT-15 colon,1.1 µM
same,TGI,HCT-15 colon,2.5 µM
same,GI50,K-562 leukemia,0.377 µM
same,TGI,K-562 leukemia,2.03 µM
same,GI50,SK-MEL-28 melanoma,1.82 µM
same,TGI,SK-MEL-28 melanoma,3.95 µM
same,GI50,MOLT-4 leukemia,2.85 µM
same,TGI,MOLT-4 leukemia,11 µM
same,GI50,M14 melanoma,1.62 µM
same,TGI,M14 melanoma,4.19 µM
same,GI50,PC-3 prostate,0.434 µM
same,TGI,PC-3 prostate,1.72 µM
same,GI50,MCF7 breast,2.85 µM
same,TGI,MCF7 breast,15.4 µM
same,GI50,HS 578T breast,1.14 µM
same,TGI,HS 578T breast,5.37 µM
same,GI50,KM12 colon,1.2 µM
same,TGI,KM12 colon,3.77 µM
same,GI50,RPMI-8226 leukemia,0.356 µM
same,TGI,RPMI-8226 leukemia,1.31 µM
same,GI50,TK-10 renal,3.14 µM
same,TGI,TK-10 renal,9.8 µM
same,GI50,LOX IMVI melanoma,1.22 µM
same,TGI,LOX IMVI melanoma,2.67 µM
same,GI50,SF-539 CNS,1.14 µM
same,TGI,SF-539 CNS,3.45 µM
same,GI50,A549 NSCLC,1.79 µM
same,TGI,A549 NSCLC,4.19 µM
same,GI50,SN12C renal,2.39 µM
same,TGI,SN12C renal,5.72 µM
same,GI50,UACC-62 melanoma,0.946 µM
same,TGI,UACC-62 melanoma,2.39 µM
same,GI50,SK-MEL-2 melanoma,1.99 µM
same,TGI,SK-MEL-2 melanoma,4.91 µM
same,GI50,HCT-116 colon,1.99 µM
same,TGI,HCT-116 colon,5.62 µM
same,GI50,SNB-19 CNS,1.39 µM
same,TGI,SNB-19 CNS,4.06 µM
same,GI50,ACHN renal,1.08 µM
same,TGI,ACHN renal,2.28 µM
same,GI50,NCI/ADR-RES ovarian,1.84 µM
same,TGI,NCI/ADR-RES ovarian,> 100 µM
same,GI50,OVCAR-8 ovarian,1.44 µM
same,TGI,OVCAR-8 ovarian,5.58 µM
same,GI50,OVCAR-5 ovarian,0.663 µM
same,TGI,OVCAR-5 ovarian,2.82 µM
same,GI50,NCI-H23 lung,3.23 µM
same,TGI,NCI-H23 lung,24.7 µM
same,GI50,A498 renal,4.17 µM
same,TGI,A498 renal,19 µM
same,GI50,UACC-257 melanoma,2.25 µM
same,TGI,UACC-257 melanoma,4.49 µM
same,GI50,786-0 renal,5.31 µM
same,TGI,786-0 renal,29.5 µM
same,GI50,SW-620 colon,0.647 µM
same,TGI,SW-620 colon,3.14 µM
same,GI50,U251 CNS,0.398 µM
same,TGI,U251 CNS,1.29 µM
same,GI50,BT-549 breast,0.419 µM
same,TGI,BT-549 breast,1.71 µM
